Measured values as given in patent US8754206B2, “Metal (III) complex of biuret-amide based macrocyclic ligand as green oxidation catalyst” (Council of Scientific & Industrial Research, priority 2011, dated 2014).

What was measured:
[1] = Catalyzed bleaching of Orange II by H2O2; conditions: for k−1: from kinetic fitting; for k1 / k2: 0.01M Phosphate Buffer
From the text: In another embodiment, to study the efficacy of complex (IA) as H2O2 activating catalyst, its activity towards bleaching of the dye Orange II ([4-[(2-hydroxynaphthyl)azo]-benzene sulphonic acid], Na+ salt) is studied. […] The exponential kinetic curve, that holds for at least 6 half-lives (FIG. 8), indicates the fact that (IA) is oxidatively robust. Therefore, little or no degradation of the catalysts takes places during the course of the oxidation. This is because C—H bond of the —NMe group is situated very far away from the proposed Fe-oxo intermediate, thereby reducing the chances of ligand degradation by intramolecular C—H abstraction as has been proposed before for other Fe-TAML, complexes.
Using same Perkin-Elmer spectrophotometer Orange II bleaching kinetics were carried out in 0.01 M phosphate buffer at 485 nm, one of the absorption peaks of Orange II. pH was varied from 7 to 11. Strength of stock solutions of IB and Orange II were (2×10^−5 M) and (2−20×10^−4 M) respectively. Stock solution of hydrogen peroxide of 2×10^−2 M was made by measuring the optical density at 230 nm (ε=72.8 M^−1 cm^−1). Appropriate amount of stock solutions of Orange II, Fe^III-catalyst (IB) and H2O2 were added consecutively in the 1.00 cm quartz cell during experiments. Extinction coefficients for Orange II of 17,800, 23,000 and 19,400 M^−1 cm^−1 at pH 7, 9 and 11 respectively was used to calculate the initial rates of Orange II oxidation, Plot of concentration versus time was taken up to 10-20% of conversion of the dye compared to the total reaction.
b. Kinetics of IA and IB Catalyzed Bleaching of Orange II by H2O2 • Orange II dye has absorption maxima at 485 nm. Natural oxidant H2O2 slowly oxidizes Orange II but in presence of IA and IB huge catalysis was observed. The kinetic data followed the mechanism shown in Scheme 2. The initial rate of the dye bleaching reaction obeyed Michaelis-Menten type Equation (2) which was derived considering the steady state of oxidized [Fe^III(L2X)] species using mass balance equation [Fe^III]T=[Fe^III(L2X)]]+[Oxidized-[Fe^III L2X)]]. From kinetic fitting it was observed k.1˜0 for both IA and IB. […] In Table 3 all the kinetic parameters related to Orange II bleaching are given in details at 25° C. in 0.01 M Phosphate Buffer.

[2] = Stability towards demetallation at different pH and phosphate buffer ionic strengths (UV-VIS); type: physicochemical; conditions: for demetalation in high concentration phosphate buffer: twenty four hour time scale, 350 nm
Method: In yet another embodiment, the stability of (IA) towards demetallation at different pH and ionic strengths is tested to evaluate the operational stability of the complex of instant invention for possible catalytic reactions in water. […] The stability of this complex is also monitored at different ionic strengths at pH 7. […] The phosphate buffer induced demetallation for similar Fe-TAML's have been studied in details. The proposed mechanism for phosphate buffer induced demetallation involves first the co-ordination of the O—PO(OH)2 into the Fe(III) center followed by the intramolecular attack of the H+ onto the amide N-donors. Complex (IA) has an extra —NMe group which is not bonded to the Fe(III) center. The lone pair on this N-atom resides predominantly in the p-orbital and can possibly be the first site for attack of the intramolecular H+ ion, thereby shielding complex (IA) from phosphate induced demetallation.
(§1) a. Kinetic Studies of Add Catalyzed Demetalation. • [Fe^III(biuret-amide)] catalyst are subject to H^+ catalyzed demetalation, following the Equation 1 according to Scheme 2 described above, kd=k1*[H^+]+k2*[H^+]^2+k3*[H^+]^3 where kd is the first order rate constant.

[3] = Acid (HClO4) catalyzed demetalation kinetics; type: physicochemical; conditions: for k1* (acid catalyzed demetalation): HClO4, 25.0 °C, 350 nm; for half-life at 0.173 mM: aqueous HClO4 solution, pH 1, read-out: t1/2 [pH 1] (converted)
Method: Acid induced demetalation kinetics was monitored in kinetic mode of the spectrophotometer (Perkin-Elmer—λ35) using 1.00 cm quartz cell in thermostatted cell housing. In the all kinetic runs IB was kept constant at 0.173 mM while acid concentration was varied from 0.04 to 3.0 M using HClO4. The pseudo first order rate constants (kd) were calculated from the initial rates at 350 nm (one of the absorption peaks of complex IB) and temperature was kept constant at 25.0±0.5° C. For each set, solution pH was measured with a pH meter (LABINDIA, PICO^+) with calibrated electrode.
as §1

[4] = Catalyzed bleaching of Safranine O by H2O2 and intramolecular inactivation; conditions: pH 11.0, 25° C.
From the text: Safranine O oxidation kinetics was monitored at 525 nm and pH 11 in 0.01 M Phosphate Buffer. The strengths of stock solutions of Safranine O, [Fe^III(biuret-amide)](X═H, NO2) IA, IB complexes and hydrogen peroxide were respectively 2×10^−3 M, 5×10^−5 M and 0.2 M respectively. The extinction coefficient of 3.3×10^4 […] at 525 nm was used to get initial rate in terms of concentration unit (Ms^−1). To get the intramolecular inactivation rate (ki) absorbance change with time was monitored up to complete inactivation of the catalyst. Calculations of rate constants were performed by using Equation (4) and (5).
c. […] For safranine O bleaching, Equation (2) can be simplified to Equation (3) and k2 value can be calculated from the initial rate vs, [Safranine O] data as given in Table 4.
d. Intramolecular Inactivation (ki) Measurement for Safranine O Bleaching at pH 11.0 • The mono exponential intramolecular inactivation rate constant (ki) measurement of the oxidized form of the catalyst was done by the method followed by Collins group. The simplified differential rate law for dye bleaching is given by Equation (3) where Dt and x are total concentrations of the dye and concentration of the bleached dye at time t respectively. Integrating the Equation (3) under the boundary condition x=x∞ at t=t∞ results Equation (4). Equation (5) was derived by replacing the concentration terms by the absorbance term.
From the slope of the double logarithm of the ratio At/A∞ vs. time plot in Equation 6 gives the value of ki (FIG. 13, Table 4). The rate constant k2 is calculated from the intercept of the plot by putting the value of ki.

[5] = Cyclic voltammetry in acetonitrile; type: physicochemical
From the text: The σ-donor ability of (Et4N)2.[Fe^III(biuret-amide)] is studied using cyclic voltammetry. […] The peak observed for (IA) (E1/2 at −0.064 V) can most likely be assigned to a one electron oxidation for a Fe(III)/Fe(IV) couple while the other peak might be due to a ligand centered oxidation process (FIG. 6). On comparison with Fe-TAML complex (II) where a —CMe2 group is present instead of a —NMe group in the six membered ring of the complex, the Fe(III)/Fe(IV) couple for (IA) is found to be approximately 230 mV lower.
Infrared spectra were obtained on a Perkin-Elmer FT-IR spectrum GX instrument. LC-MS from Acquity Waters was used for ESI-MS analysis. EPR spectrum was recorded on a Bruker EMX X-band spectrometer operating at a field modulation of 100 kHz, modulation amplitude of 2. G and microwave radiation power of 2 mW. The solid Fe(III) complex was taken in a quartz tube and the spectrum was recorded at 298K. Cyclic voltammetry (CV) was done on an Autolab PGSTAT30 (Eco-Chemie) instrument in a conventional three-electrode test cell with platinum as the working electrode (WE), platinum wire as quasi reference electrode (RE) and a platinum foil as a counter electrode (CE). The measurements were carried out using a solution of 1 mM of (I) in dry acetonitrile with 0.1 M [n-Bu4N]PF6 as the supporting electrolyte. All reversible couples were confirmed by a linear dependence of peak current vs. the square root of the scan rate over the range of 20-200 mVs^−1.

Structure (SMILES) | k−1 [1] | k1 ([1]; pH 7.0, 25° C.) | k2 ([1]; pH 7.0, 25° C.) | k1 ([1]; pH 9.4, 25° C.) | k2 ([1]; pH 9.4, 25° C.) | k1 ([1]; pH 11.0, 25° C.) | k2 ([1]; pH 11.0, 25° C.) | demetalation in high concentration phosphate buffer [2] | acid induced demetalation compared to compound II [3] | k1* (acid catalyzed demetalation) [3] | half-life at 0.173 mM [3] [h] | ki × 10^4 (intramolecular inactivation) [4] [s^−1] | k2 × 10^−3, from Equation (5) [4] [M^−1s^−1] | k2 × 10^−3, from initial rates [4] [M^−1s^−1] | also measured
CN1C(=O)[N]2C(C)(C)C(=O)[N]3c4ccccc4[N]4C(=O)C(C)(C)[N](C1=O)[Fe]342[Cl] [Catalyst 1A, Tetraethyl ammonium 3,3,6,9,9-pentamethyl-1,4,8,11-tetrahydro-1H-benzo[i][1,4,6,8,11]pentaazacyclotridecine-2,5,7,10(6H,11H)-tetraone ferrate] | ~0 | (2.0 ± 0.1) × 10^2 M^−1s^−1 | (2.0 ± 0.1) × 10^4 M^−1s^−1 | (2.8 ± 0.2) × 10^3 M^−1s^−1 | (1.12 ± 0.10) × 10^5 M^−1s^−1 | (3.4 ± 0.2) × 10^4 M^−1s^−1 | (1.60 ± 0.10) × 10^5 M^−1s^−1 | insignificant absorption change | significantly less | (3.7 ± 0.5) × 10^−3 M^−1s^−1 | 0.4 | 3.7 ± 0.1 | 2.0 ± 0.1 | 2.4 ± 0.1 | catalytic activity compared with Fe-TAML ([1]; pH 7 and 9): much faster in oxidizing Orange II; bleaching of the dye Orange II by activation of H2O2 ([1]; pH 11): complete bleaching; pseudo first order rate constant kobs ([1]; pH 11): 0.021 ± 0.001 s⁻¹; stability at low pH ([2]; in presence of HClO4): very good stability up to pH 2; half-life ([2]; pH 5, 0.1M phosphate buffer, 25° C.): ~18 h; complex degraded ([2]; pH 5, 0.1M phosphate buffer, 5 hours, 25° C.): 10%; stability at different ionic strengths ([2]; pH 7, phosphate concentration): remarkably stable up to 0.5 M phosphate concentrations; Fe(III)/Fe(IV) couple lower than Fe-TAML complex (II) [5]: approximately 230 mV; formal reduction potential E1/2, reversible process (Fe(III)/Fe(IV) couple) ([5]; acetonitrile, 0.1 M [n-Bu4N]PF6, vs Fc+/Fc): −0.064 V; E1/2, quasi-reversible process ([5]; acetonitrile, 0.1 M [n-Bu4N]PF6, vs Fe+/Fc): −0.559 V
CN1C(=O)[N]2C(C)(C)C(=O)[N]3c4ccc([N+](=O)[O-])cc4[N]4C(=O)C(C)(C)[N](C1=O)[Fe]342[Cl] [Catalyst 1B, Tetraethyl ammonium 3,3,6,9,9-pentamethyl-13-nitro-1,4,8,11-tetrahydro-1H benzo[i][1,4,6,8,11]pentaazacyclotridecine-2,5,7,10(6H,11H)-tetraone ferrate] | ~0 | (1.24 ± 0.10) × 10^3 M^−1s^−1 | (4.1 ± 0.5) × 10^5 M^−1s^−1 | (2.36 ± 0.6) × 10^3 M^−1s^−1 | (4.2 ± 0.4) × 10^5 M^−1s^−1 | (2.4 ± 0.2) × 10^4 M^−1s^−1 | (4.9 ± 0.5) × 10^5 M^−1s^−1 | insignificant absorption change | significantly less | (1.41 ± 0.09) × 10^−3 M^−1s^−1 | 1.33 | 3.0 ± 0.2 | 3.8 ± 0.3 | 3.9 ± 0.1 | 
